Source: patent publication EP1758924B1, “PEPTIDES ANTAGONISTS FOR […] SHOCK PROTEIN (HSP 16.3) OF MYCOBACTERIUM TUBERCULOSIS” (priority 2004, dated 2005)
Several values for one entry are separate records, joined by “and”; a condition that tells them apart may be missing. Identical values can stand only once. Residues, ends and D or L forms follow the SMILES beside them.

Assays:
Hsp16.3 [1] = target: T1, Hsp16.3 (Mycobacterium tuberculosis, UniProt P9WMK1); assay: Peptide inhibition assay for Hsp16.3 chaperon activity (heat-induced ADH aggregation, A360); assay type: biochemical; conditions: for IC50: IC50 (concentration of peptide at which 50% inhibition of chaperon activity was observed), 5 µM ADH, 50°C, ADH:Hsp16.3 5:4, A360 at 1200 sec
From the text: The binding of a peptide need not necessarily result in inhibition. Inhibition will happen only if binding leads to significant changes in the active site. […] A part of the invention is the development of a peptide inhibition assay for Hsp16.3. The method is based on aggregation based assays. The standard assay used for assaying the activity of alpha-crystallin like proteins is to study the protection it confers against heat induced aggregation of proteins, the aggregation activity being measured spectrophotometrically. Yeast alcohol dehydrogenase (ADH), purchased from Sisco Research Laboratory, Mumbai, India, is used for aggregation studies. Aggregation of 5 µM ADH at 50°C can be measured as an apparent optical density at 360 nm using a spectrophotometer equipped with a thermostated cuvette holder in a total reaction volume of 500 µl. The chaperon activity of Hsp16.3 can be determined by mixing ADH with Hsp16.3 at a molar ratio of 5:4 which is equivalent to a ratio of about 12:1 between ADH and Hsp16.3 assuming a nonameric structure of Hsp16.3 as the functional unit (Chang et al., 1996) and aggregation rates again determined spectrophotometrically. Then the same experiment can be repeated in the presence of increasing concentrations of peptide inhibitors.
A part of the invention is the peptide inhibition assay for Hsp16.3 comprising of heat treating ADH alone, ADH + Hsp16.3 and ADH + Hsp16.3 + 25, 50 and 100 µM peptide. When ADH is heated it aggregates and there is an increase of optical density. In the presence of Hsp16.3 aggregation is prevented, but in the presence of peptide aggregation is again observed if Hsp16.3 activity is inhibited. Aggregation of 5 µM ADH at 50°C was measured as an apparent optical density at 360 nm using Hitachi spectrophotometer equipped with a thermostated cuvette holder in a total reaction volume of 500 µl. The chaperon activity of Hsp16.3 was determined by mixing ADH with Hsp16.3 at a molar ratio of 5:4 and aggregation rates were again determined spectrophotometrically. Then the same experiment was performed in the presence of increasing concentrations of the Hsp16.3 binding peptides (Seq IDs 10 and 22) (Figure 2).
Aggregation assays were performed by heating 5 µM Alcohol dehydrogenase (ADH) to 50°C directly in a spectrophotometer using a thermostated cuvette holder in a total reaction volume of 500 µl. Absorbance was monitored at 360 nm (A360) for 1200 seconds and readings were taken at every 100 seconds interval. When the A360 values were plotted against time (black triangle) it was observed that absorbance increased with time reaching near saturation level at the1200 sec time point. The increase in absorbance indicates aggregation of ADH. […] However the same effect may be obtained if the peptide instead of inhibiting the activity of Hsp16.3 promotes the aggregation of ADH. To eliminate such a possibility a control experiment was done in which the peptide alone was added to ADH.
To obtain a more quantitative interpretation of the data the % residual chaperon activity of Hsp 16.3 in the presence of different concentrations of inhibitor was derived as follows, the A360 values at the saturation point (1200 secs) being taken into consideration.
The % chaperon activity was then plotted against peptide concentration (Fig. 2B). From the resulting curve it is apparent that chaperon activity decreases exponentially with increasing concentration of peptide. […]

Hsp16.3 [2] = target: T1, Hsp16.3; assay: biochemical; assay type: binding; conditions: fluoresceinated peptide 200 nM, 50 mM sodium phosphate buffer, pH 7.5, 300 mM NaCl, 25°C, single-site fit
human alphaB-crystallin = target: T2, human alphaB-crystallin (Homo sapiens, UniProt P02511); assay: ADH aggregation assay with alphaB-crystallin instead of Hsp16.3 (specificity); assay type: biochemical; conditions: 25, 50, 100 µM peptide; ADH:alphaB-crystallin 5:4
T2 construct: expression vector from Dr. W.C; Boelens, University of Nijmegen
T2 sequence (P02511 1-175): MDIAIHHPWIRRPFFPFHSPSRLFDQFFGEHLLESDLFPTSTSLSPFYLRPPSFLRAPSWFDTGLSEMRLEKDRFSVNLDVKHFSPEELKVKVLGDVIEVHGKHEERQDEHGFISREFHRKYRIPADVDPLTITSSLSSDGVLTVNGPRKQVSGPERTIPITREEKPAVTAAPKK

Hsp16.3 [3] = target: T1, Hsp16.3; assay: NMR (TOCSY) comparison of amide proton chemical shifts of free peptide and peptide with Hsp16.3; assay type: binding; conditions: 0.1 mM protein, 2 mM peptide, 20 mM sodium phosphate pH 7.0, 250 mM NaCl, 4°C
Experimental: All NMR spectra were taken in a Bruker DRX-500 NMR spectrometer equipped with a Z-field gradient probe. All measurements were done in high precision 5-mm NMR tubes in 20 mM sodium phosphate buffer, pH 7.0, containing 250 mM NaCl in 90% H2O and 10% D2O. All NMR experiments were done at 4°C, unless stated otherwise. TOCSY spectra were measured using standard pulse sequences in the Bruker pulse library using WATERGATE water suppression method. Standard Bruker software (Xwin-NMR version 1.3) was used to acquire and process the NMR data. The NMR samples were adjusted to a protein concentration of 0.1 mM and a 20-fold ligand excess (2 mM) over binding sites was used throughout the studies.
The comparison of chemical shifts of amide protons of free peptide (Seq ID 10) (A) and peptide with Hsp16.3 protein (B). Resonance assignments are indicated with a one-letter amino acid code. All NMR spectra were taken in a Bruker DRX-500 spectrometer equipped with a Z-field gradient probe. All measurements were done in high precision 5-mm NMR tubes in 20 mM sodium phosphate buffer, pH 7.0, containing 250 mM NaCl in 90% H2O and 10% D2O at 4°C. TOCSY spectra were measured using standard pulse sequences in the Bruker pulse library using WATERGATE water suppression method. Standard Bruker software (Xwin-NMR version 1.3) was used to acquire and process the NMR data. […]

T1 sequence (P9WMK1 whole entry, looked up): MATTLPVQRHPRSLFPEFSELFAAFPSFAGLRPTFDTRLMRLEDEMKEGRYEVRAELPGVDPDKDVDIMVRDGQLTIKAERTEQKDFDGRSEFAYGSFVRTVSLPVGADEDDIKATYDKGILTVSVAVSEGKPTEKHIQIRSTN

| SMILES | aggregation restored (Hsp16.3 [1]; 100 µM peptide, A360 at saturation point, ADH:Hsp16.3 5:4) | inhibition of chaperon activity of Hsp16.3 (Hsp16.3 [1]; 25, 50 and 100 µM peptide) | influence of peptide alone on aggregation of ADH (only peptide control) (Hsp16.3 [1]; ADH + 100 µM peptide, no Hsp16.3) | IC50 (Hsp16.3 [1]) | Kd (Hsp16.3 [2]) | inhibition of chaperon activity of alphaB-crystallin (human alphaB-crystallin) | chemical shift of amide protons on addition of Hsp16.3 (Hsp16.3 [3]) |
| --- | --- | --- | --- | --- | --- | --- | --- |
| CSCC[C@H](NC(=O)[C@@H](N)CCCCN)C(=O)N[C@@H](Cc1c[nH]cn1)C(=O)N[C@@H](C)C(=O)N[C@H](C(=O)N[C@@H](CC(N)=O)C(=O)N[C@@H](Cc1c[nH]cn1)C(=O)NCC(=O)NCC(=O)NCC(=O)N[C@@H](CO)C(N)=O)[C@@H](C)O [Seq ID 10, Lys-Met-His-Ala-Thr-Asn-His-Gly-Gly-Gly-Ser] (H-KMHATNHGGGS-NH2) | ~70% | dose dependent inhibition | does not influence the aggregation of ADH | 47 µM and ~47 µM | ~50 µM and 50 µM | no inhibition | significant chemical shift occured in both histidines |
| CC[C@H](C)[C@H](NC(=O)[C@@H]1CCCN1C(=O)[C@@H](NC(=O)[C@H](Cc1c[nH]cn1)NC(=O)[C@H](CCCNC(=N)N)NC(=O)[C@H](Cc1c[nH]cn1)NC(=O)[C@H](CCCCN)NC(=O)[C@H](Cc1ccccc1)NC(=O)[C@H](Cc1c[nH]cn1)NC(=O)[C@H](Cc1c[nH]cn1)NC(=O)[C@@H]1CCCN1C(=O)[C@@H](N)Cc1ccc(O)cc1)[C@@H](C)CC)C(=O)NCC(=O)NCC(=O)NCC(=O)N[C@@H](CO)C(N)=O [Seq ID 22, Tyr-Pro-His-His-Phe-Lys-His-Arg-His-Ile-Pro-Ile-Gly-Gly-Gly-Ser] (H-YPHHFKHRHIPIGGGS-NH2) |  |  |  | 57 µM and 52 µM | ~40 µM and 40 µM |  |  |
